Assay results reported in patent publication EP1097196B2, “GL[…]” (priority 1998, dated 2000).

Key:
Assay in all cases: Specific activity as kcat on purified enzyme
Assay type in all cases: biochemical
Settings in all cases: pH 4.3, 37°C, purified sample
[1] = system: Aspergillus niger glucoamylase AMG G2 (SEQ ID NO: 2) variant S119P
Method: (§1) Maltose: 29mM (1g maltose in 100ml 50mM sodium acetate, pH 4.5) (Sigma) Maltoheptaose: 10 mM, 115 mg/10 ml (Sigma)
(§2) Determining Specific Activity As kcat (sec.^-1).
(§3) 750 microL substrate (1% maltose, 50 mM Sodium acetat, pH 4.3) is incubated 5 minutes at selected temperature, such as 37°C or 60°C.
(§4) 50 microL enzyme diluted in sodium acetate is added. Aliquots of 100 microL are removed after 0, 3, 6, 9 and 12 minutes and transferred to 100 microL 0.4 M Sodium hydroxide to stop the reaction. A blank is included. 20 microL is transferred to a Micro titre plates and 200 microL GOD-Perid solution is added. Absorbance is measured at 650 nm after 30 minutes incubation at room temperature. Glucose is used as standard and the specific activity is calculated as kcat (sec.^-1).
(§5) AMG G2 variants were constructed as described above in Example 1. The specific activity as kcat were measured on purified samples at pH 4.3, 37°C, using maltose and maltohepatose as substrate as described in the "Materials & Methods" section above. The specific activity as AGU/mg were also measured at pH 4.3, 37°C, using maltose as substrate as described in the "Materials & Methods" section above.

[2] = system: Aspergillus niger glucoamylase AMG G2 (SEQ ID NO: 2) variant V111P
Method: as §1, §2, §3, §4, §5

[3] = system: Aspergillus niger glucoamylase AMG G2 (wt), SEQ ID NO: 2
Method: as §1, §2, §3, §4, §5

[4] = system: Aspergillus niger glucoamylase AMG G2 (SEQ ID NO: 2) variant G127A
Method: as §1, §2, §3, §4, §5

[5] = system: Aspergillus niger glucoamylase AMG G2 (SEQ ID NO: 2) variant N110T
Method: as §1, §2, §3, §4, §5

[6] = system: Aspergillus niger glucoamylase AMG G2 (SEQ ID NO: 2) variant G207N
Method: as §1, §2, §3, §4, §5

OC[C@H]1O[C@H](O[C@H]2[C@H](O)[C@@H](O)C(O)O[C@@H]2CO)[C@H](O)[C@@H](O)[C@@H]1O (mixture of isomers) [Maltose]
Kcat (Maltose) ([1]; substrate maltose): 6.2 sec.-1 | Kcat (Maltose) ([2]; substrate maltose): 12.0 sec.-1 | Kcat (Maltose) ([3]; substrate maltose): 6.0 sec.-1 | Kcat (Maltose) ([4]; substrate maltose): 21.0 sec.-1 | Kcat (Maltose) ([5]; substrate maltose): 9.7 sec.-1 | Kcat (Maltose) ([6]; substrate maltose): 30.5 sec.-1

OC[C@H]1O[C@H](O[C@H]2[C@H](O)[C@@H](O)[C@@H](O[C@H]3[C@H](O)[C@@H](O)[C@@H](O[C@H]4[C@H](O)[C@@H](O)[C@@H](O[C@H]5[C@H](O)[C@@H](O)[C@@H](O[C@H]6[C@H](O)[C@@H](O)[C@@H](O[C@H]7[C@H](O)[C@@H](O)C(O)O[C@@H]7CO)O[C@@H]6CO)O[C@@H]5CO)O[C@@H]4CO)O[C@@H]3CO)O[C@@H]2CO)[C@H](O)[C@@H](O)[C@@H]1O (stereo partly drawn) [Maltoheptaose]
Kcat (Maltoheptaose) ([1]; substrate maltoheptaose): 44.0 sec.-1 | Kcat (Maltoheptaose) ([2]; substrate maltoheptaose): 43.2 sec.-1 | Kcat (Maltoheptaose) ([3]; substrate maltoheptaose): 38 sec.-1 | Kcat (Maltoheptaose) ([4]; substrate maltoheptaose): 40.0 sec.-1 | Kcat (Maltoheptaose) ([5]; substrate maltoheptaose): 27.8 sec.-1 | Kcat (Maltoheptaose) ([6]; substrate maltoheptaose): 36.3 sec.-1
